Our source for the IC50 values is US20240327382A1 (ALMAC DISCOVERY LIMITED, priority 2021, published 2024).

What is called IC50 is the concentration at which inhibition is half-maximal.

For the assay, the target named is T1, Full-length USP19 (Homo sapiens, UniProt O94966).
T1 construct: Full-length USP19 was purchased from Boston Biochem (E-576); purchased Boston Biochem E-576
T1 sequence (O94966 1-1318): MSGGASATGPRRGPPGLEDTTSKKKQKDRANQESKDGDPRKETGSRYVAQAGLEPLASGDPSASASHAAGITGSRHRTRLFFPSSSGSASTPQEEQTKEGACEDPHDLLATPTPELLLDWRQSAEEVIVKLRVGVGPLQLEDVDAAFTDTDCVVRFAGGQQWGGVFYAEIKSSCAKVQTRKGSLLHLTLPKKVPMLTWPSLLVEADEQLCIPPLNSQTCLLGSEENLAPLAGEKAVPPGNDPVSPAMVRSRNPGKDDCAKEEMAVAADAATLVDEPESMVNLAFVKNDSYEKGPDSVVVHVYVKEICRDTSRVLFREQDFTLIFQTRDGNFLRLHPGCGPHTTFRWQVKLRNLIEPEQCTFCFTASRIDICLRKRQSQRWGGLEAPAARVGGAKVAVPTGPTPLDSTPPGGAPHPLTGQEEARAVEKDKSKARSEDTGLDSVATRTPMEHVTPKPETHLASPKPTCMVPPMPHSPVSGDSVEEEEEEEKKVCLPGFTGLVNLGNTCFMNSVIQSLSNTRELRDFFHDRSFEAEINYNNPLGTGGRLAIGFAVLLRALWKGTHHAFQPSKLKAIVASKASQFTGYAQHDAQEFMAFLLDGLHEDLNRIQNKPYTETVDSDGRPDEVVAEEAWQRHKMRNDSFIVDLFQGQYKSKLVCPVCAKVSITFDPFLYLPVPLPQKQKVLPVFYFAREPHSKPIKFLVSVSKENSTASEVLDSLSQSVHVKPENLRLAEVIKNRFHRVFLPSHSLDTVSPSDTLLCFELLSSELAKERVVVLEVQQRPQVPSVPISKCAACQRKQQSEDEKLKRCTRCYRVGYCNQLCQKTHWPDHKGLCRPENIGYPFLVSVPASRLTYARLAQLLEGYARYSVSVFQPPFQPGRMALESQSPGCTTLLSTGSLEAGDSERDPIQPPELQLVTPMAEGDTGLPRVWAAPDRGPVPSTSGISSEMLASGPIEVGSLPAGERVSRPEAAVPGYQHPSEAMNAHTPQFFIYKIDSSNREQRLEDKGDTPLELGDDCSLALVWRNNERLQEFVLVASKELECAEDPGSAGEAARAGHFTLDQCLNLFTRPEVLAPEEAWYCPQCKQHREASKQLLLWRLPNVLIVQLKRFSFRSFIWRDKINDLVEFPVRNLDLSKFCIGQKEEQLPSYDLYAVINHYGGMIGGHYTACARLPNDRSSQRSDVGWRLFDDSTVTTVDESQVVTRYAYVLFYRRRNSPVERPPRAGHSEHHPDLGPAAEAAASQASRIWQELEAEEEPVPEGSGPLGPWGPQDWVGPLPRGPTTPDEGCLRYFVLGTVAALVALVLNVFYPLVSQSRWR
The experiment in a line: USP19 fluorescence polarisation (FP) assay, Ubiquitin-Lys-TAMRA substrate. Type of assay: biochemical. Conditions: average of at least two duplicate experiments. The method in brief:
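Fluorescence polarisation (excitation 530 nm, parallel and perpendicular emission at 575 nm) was recorded every 15 min for 90 min after adding the ubiquitin-Lys-TAMRA isopeptide (500 nM as dispensed). Beforehand, the full-length enzyme (2.5 nM as dispensed) sat 30 min at RT with compound diluted from 200 μM to 2 μM in HEPES pH 7.4 buffer with 150 mM NaCl, 5 mM DTT, 0.05% BSA and 0.05% CHAPS. Values normalised to uninhibited wells gave IC50s by non-linear fitting, each the mean of two or more duplicate runs.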
In the case of `CC1(N[C@@H]2CCN(C(=O)N3CC[C@@H](Cn4ccc(-c5ccccc5)cc4=O)C4(CCCC4)C3)[C@H](c3ccccc3)C2)COC1` [Example 111, 1-(((R)-7-((2S,4R)-4-((3-Methyloxetan-3-yl)amino)-2-phenylpiperidine-1-carbonyl)-7-azaspiro[4.5]decan-10-yl)methyl)-4-phenylpyridin-2(1H)-one], the IC50 was under 10 nM.

Consider `O=C(N1CC=C(Cn2cnc(-c3ccccc3)cc2=O)C2(CCCC2)C1)N1CCNC[C@H]1c1ccccc1` (single isomer, unassigned) [Example 2], for which the IC50 is 10 to 100 nM.

`CC1(c2cc(=O)n(CC3CCN(C(=O)N4CC[C@@H](N)C[C@H]4c4ccccc4)CC34CCCC4)cn2)CC1` (stereo partly drawn) [Example 36, 3-((7-((2S,4R)-4-Amino-2-phenylpiperidine-1-carbonyl)-7-azaspiro[4.5]decan-10-yl)methyl)-6-(1-methylcyclopropyl) pyrimidin-4(3H)-one]: the IC50 was under 10 nM.

With `CN[C@@H]1CCN(C(=O)N2CC[C@@H](CN3CCC(c4ccccc4OC)=CC3=O)C3(CCCC3)C2)[C@H](c2ccc(F)cc2F)C1` (racemic) [Example 127, 1-(((R)-7-((2S,4R)-2-(2,4-Difluorophenyl)-4-(methylamino)piperidine-1-carbonyl)-7-azaspiro[4.5]decan-10-yl)methyl)-4-(2-methoxyphenyl)-5,6-dihydropyridin-2(1H)-one and 1-(((S)-7-((2S,4R)-2-(2,4-Difluorophenyl)-4-(methylamino)piperidine-1-carbonyl)-7-azaspiro[4.5]decan-10-yl)methyl)-4-(2-methoxyphenyl)-5,6-dihydropyridin-2(1H)-one], the half-inhibitory concentration (IC50) was under 10 nM.

For the molecule `N[C@@H]1CCN(C(=O)N2CCC(Cn3ccc(-c4ccccc4)cc3=O)CC2)[C@H](c2ccccc2)C1` [Example 17, 1-((1-((2S,4R)-4-Amino-2-phenylpiperidine-1-carbonyl)piperidin-4-yl)methyl)-4-phenylpyridin-2(1H)-one], the 50% inhibitory concentration (IC50) lay within 10 to 100 nM.

As for `O=C(N1CC[C@@H](Cn2cnc(-c3ccccc3)cc2=O)C2(CCCC2)C1)N1CC[C@@H](NCc2ccc(F)cn2)C[C@H]1c1ccccc1` [Example 148, 3-(((R)-7-((2S,4R)-4-(((5-Fluoropyridin-2-yl)methyl)amino)-2-phenylpiperidine-1-carbonyl)-7-azaspiro[4.5]decan-10-yl)methyl)-6-phenylpyrimidin-4(3H)-one], the IC50 is under 10 nM.

On to `Cc1cccnc1CN[C@@H]1CCN(C(=O)N2CC[C@@H](Cn3cnc(-c4ccccc4)cc3=O)C3(CCCC3)C2)[C@H](c2ccccc2)C1` [Example 193, 3-(((R)-7-((2S,4R)-4-(((3-Methylpyridin-2-yl)methyl)amino)-2-phenylpiperidine-1-carbonyl)-7-azaspiro[4.5]decan-10-yl)methyl)-6-phenylpyrimidin-4(3H)-one], for which the half-maximal inhibitory concentration (IC50) is 10 to 100 nM.

Regarding `O=C(N1CC[C@@H](Cn2cnc(C(F)F)cc2=O)C2(CCCC2)C1)N1CC[C@@H](NCC(F)F)C[C@H]1c1cc(F)ccc1F` [Example 152, 3-(((R)-7-((2S,4R)-4-((2,2-Difluoroethyl)amino)-2-(2,5-difluorophenyl)piperidine-1-carbonyl)-7-azaspiro[4.5]decan-10-yl)methyl)-6-(difluoromethyl)pyrimidin-4(3H)-one], the IC50 fell in the range of 10 to 100 nM.

For `N[C@@H]1CCN(C(=O)N2CC[C@@H](Cn3ccc(-c4ccccc4)cc3=O)C3(CCCC3)C2)[C@H](c2cc(F)ccc2F)C1` [Example 87, 1-(((R)-7-((2S,4R)-4-Amino-2-(2,5-difluorophenyl)piperidine-1-carbonyl)-7-azaspiro[4.5]decan-10-yl)methyl)-4-phenylpyridin-2(1H)-one], the IC50 is under 10 nM.

`C[C@H]1CN(C(=O)N2CC[C@@H](Cn3cnc4ccc(F)cc4c3=O)C3(CCCC3)C2)[C@H](c2cc(F)ccc2F)CO1` [Example 200, 3-(((R)-7-((2S,5R)-5-(2,5-Difluorophenyl)-2-methylmorpholine-4-carbonyl)-7-azaspiro[4.5]decan-10-yl)methyl)-6-fluoroquinazolin-4(3H)-one]: the IC50 was 10 to 100 nM.

Turning to `N[C@@H]1CCN(C(=O)N2CC[C@@H](Cn3ccc(-c4ccccc4)cc3=O)C3(CCCC3)C2)[C@H](c2cc(F)cc(F)c2)C1` [Example 108, 1-(((R)-7-((2S,4R)-4-Amino-2-(3,5-difluorophenyl)piperidine-1-carbonyl)-7-azaspiro[4.5]decan-10-yl)methyl)-4-phenylpyridin-2(1H)-one], the IC50 was under 10 nM.

Take `CN[C@@H]1CCN(C(=O)N2CC[C@@H](CN3CC(c4ccccc4)=CC3=O)C3(CCCC3)C2)[C@H](c2cc(F)ccc2F)C1` [Example 178, 1-(((R)-7-((2S,4R)-2-(2,5-Difluorophenyl)-4-(methylamino)piperidine-1-carbonyl)-7-azaspiro[4.5]decan-10-yl)methyl)-4-phenyl-1,5-dihydro-2H-pyrrol-2-one]: the IC50 was in the range of 10 to 100 nM.

For `COC[C@H](CC(F)(F)F)C(=O)N1CCC(Cn2cnc(-c3ccccc3)cc2=O)C2(CCCC2)C1` (stereo partly drawn) [Example 7, 6-Phenyl-3-((7-((S)-4,4,4-trifluoro-2-(methoxymethyl)butanoyl)-7-azaspiro[4.5]decan-10-yl)methyl)pyrimidin-4(3H)-one], the IC50 lay in the range of 1000 to 20000 nM.

With `CN[C@@H]1CCN(C(=O)N2CC[C@@H](Cn3cnc(-c4ccccc4)cc3=O)C3(CCCC3)C2)[C@H](c2cccc(F)c2)C1` [Example 63, 3-(((R)-7-((2S,4R)-2-(3-Fluorophenyl)-4-(methylamino)piperidine-1-carbonyl)-7-azaspiro[4.5]decan-10-yl)methyl)-6-phenylpyrimidin-4(3H)-one], the IC50 is under 10 nM.

Take `N[C@@H]1CCN(C(=O)N2CCC(Cn3ccc4ccncc4c3=O)C3(CCCC3)C2)[C@H](c2ccccc2)C1` (stereo partly drawn) [Example 33, 2-((7-((2S,4R)-4-Amino-2-phenylpiperidine-1-carbonyl)-7-azaspiro[4.5]decan-10-yl)methyl)-2,7-naphthyridin-1(2H)-one]: the half-maximal inhibitory concentration (IC50) lay in the range of 10 to 100 nM.

For `CSc1ncc2c(=O)n(CC3CCN(C(=O)N4CC[C@@H](N)C[C@H]4c4ccccc4)CC34CCCC4)ccc2n1` (stereo partly drawn) [Example 40, 6-((7-((2S,4R)-4-Amino-2-phenylpiperidine-1-carbonyl)-7-azaspiro[4.5]decan-10-yl)methyl)-2-(methylthio)pyrido [4,3-d]pyrimidin-5(6H)-one], the IC50 is under 10 nM.

For `O=C(N1CC[C@@H](Cn2cnc(-c3ccccc3)cc2=O)C2(CCCC2)C1)N1CC[C@@H](NC2CC2)C[C@H]1c1ccccc1` [Example 79, 3-(((R)-7-((2S,4R)-4-(Cyclopropylamino)-2-phenylpiperidine-1-carbonyl)-7-azaspiro[4.5]decan-10-yl)methyl)-6-phenylpyrimidin-4(3H)-one], the IC50 was under 10 nM.

In the case of `N[C@@H]1CCN(C(=O)N2CC[C@@H](Cn3cnc(-c4ccccc4)cc3=O)C3(CCCC3)C2)[C@H](c2cc(F)cc(F)c2)C1` [Example 107, 3-[[(10R)-7-[(2S,4R)-4-amino-2-(3,5-difluorophenyl)piperidine-1-carbonyl]-7-azaspiro[4.5]decan-10-yl]methyl]-6-phenyl-pyrimidin-4-one], the IC50 is under 10 nM.

In the case of `O=C(O)[C@@H]1CCN(C(=O)N2CC[C@@H](Cn3cnc(-c4ccccc4)cc3=O)C3(CCCC3)C2)[C@H](c2ccccc2)C1` [Example 175, (2S,4R)-1-((R)-10-((6-oxo-4-phenylpyrimidin-1(6H)-yl)methyl)-7-azaspiro[4.5]decane-7-carbonyl)-2-phenylpiperidine-4-carboxylic acid], the IC50 was 100 to 1000 nM.

Consider `O=C(N1CC[C@@H](Cn2ccc(-c3ccccc3)cc2=O)C2(CCCC2)C1)N1CCNC[C@H]1c1ccccc1` (single isomer, unassigned) [Example 16], for which the IC50 was under 10 nM.
